Each structure is given as a SMILES string. Numbers after ± are expanded uncertainties.

The record followed here is the NIST ThermoML archive (doi:10.1016/j.fluid.2008.09.026).

For the data set the following is noted: Liquid, Ebulliometric method (Recirculating still).

Broadly, the vapor or sublimation pressure is the pressure of vapour in equilibrium with the condensed phase. Regarding `CC(C)OCCO` [2-isopropoxyethanol], the “vapor or sublimation pressure” value is, setting by setting: (398.12 K) 60 ± 0.1 kPa; (407.13 K) 80 ± 0.1 kPa; (414.21 K) 100 ± 0.1 kPa.
For the compound `CCCCCC` [hexane], the “vapor or sublimation pressure” value runs as follows: (326.11 K) 60 ± 0.1 kPa; (334.61 K) 80 ± 0.1 kPa; (341.48 K) 100 ± 0.1 kPa.
For the compound `CCCCCCC` [heptane], the “vapor or sublimation pressure” value by setting is: (354.72 K) 60 ± 0.1 kPa; (363.74 K) 80 ± 1 kPa; (371.2 K) 100 ± 0.1 kPa.
